Measurements: patent US8377974B2 (Millennium Pharmaceuticals, Inc., priority 2004, dated 2013)

What follows are compounds tested against T1, human plasma protein factor Xa (Homo sapiens, UniProt P00742) (assay: Factor Xa IC50 determination: cleavage of paranitroanilide substrate S-2765 in 96-well plates). Conditions: fXa 1 nM, S-2765 100 μM, Tris buffered saline pH 7.4, room temperature.
T1 construct: measure proteolytic activity of the enzyme (factor Xa); purchased Haematologic Technologies (Essex Junction, Vt.); host or cells: human plasma
T1 sequence (P00742 235-488 limits assumed): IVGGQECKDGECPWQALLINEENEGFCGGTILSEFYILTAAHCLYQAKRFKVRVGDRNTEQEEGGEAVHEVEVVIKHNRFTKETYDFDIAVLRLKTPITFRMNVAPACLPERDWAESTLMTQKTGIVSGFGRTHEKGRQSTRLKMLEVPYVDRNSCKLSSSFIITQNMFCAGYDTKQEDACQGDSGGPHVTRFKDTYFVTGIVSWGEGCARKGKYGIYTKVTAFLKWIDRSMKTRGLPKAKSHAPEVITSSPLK
T1 sequence (P00742 41-179 partner limits assumed): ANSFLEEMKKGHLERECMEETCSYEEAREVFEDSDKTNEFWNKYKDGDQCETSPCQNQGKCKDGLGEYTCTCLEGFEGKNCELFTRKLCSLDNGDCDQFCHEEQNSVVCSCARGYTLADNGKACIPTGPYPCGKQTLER
Assay type: biochemical
Method in brief: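 Initial rates of S-2765 (100 μM final) cleavage, read at 405 nm for 2 min, fitted with a four-parameter equation to give IC50. Enzyme: 1 nM human plasma fXa, 5 min room-temperature preincubation with inhibitor (0.01 nM–10 μM) in 20 mM Tris, 150 mM NaCl, 5 mM CaCl2, 0.1% BSA, 5% DMSO, pH 7.4; duplicates.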
For `CN1CCN=C1c1ccc(-c2cc(CNC(=O)c3ccc(Cl)s3)on2)c(N2CCOCC2)c1` [Example 99, 5-Chloro-thiophene-2-carboxylic acid {3-[4-(1-methyl-4,5-dihydro-1H-imidazol-2-yl)-2-morpholin-4-yl-phenyl]-isoxazol-5-ylmethyl}-amide], the IC50 was ≤ 0.1 µM.
For `CN1CCN=C1c1ccc(-c2cc(CNC(=O)c3ccc(Cl)s3)no2)cc1` [Example 331, 5-Chloro-N-((5-(4-(1-methyl-4,5-dihydro-1H-imidazol-2-yl)phenyl)isoxazol-3-yl)methyl)thiophene-2-carboxamide], the IC50 was ≤ 0.1 µM.
With `COc1ccc(Nc2ccc(-c3cc(CNC(=O)c4ccc(Cl)s4)on3)cc2)cc1` [Example 251, 5-Chloro-thiophene-2-carboxylic acid {3-[4-(4-methoxy-phenylamino)-phenyl]-isoxazol-5-ylmethyl}-amide] the IC50 was ≥ 0.5 µM.
`O=C(NCc1cc(-c2ccc(-n3ccccc3=O)cc2)no1)c1ccc(Cl)s1` [Example 289, 5-Chloro-N-((3-(4-(2-oxopyridin-1(2H)-yl)phenyl)isoxazol-5-yl)methyl)thiophene-2-carboxamide] was tested, and the IC50 was ≤ 0.1 µM.
With `COCCN(C)C(=N)c1ccc(C2=NOC(C)(CNC(=O)c3ccc(Cl)s3)C2)cc1` (stereo not drawn) [Example 66, 5-Chloro-thiophene-2-carboxylic acid (3-{-4-[N-(2-methoxy-ethyl)-N-methyl-carbamimidoyl]-phenyl}-5-methyl-4,5-dihydro-isoxazol-5-ylmethyl)-amide] the IC50 was 0.1 to 0.5 µM.
In the case of `N=C(c1ccc(-c2cc(CNC(=O)c3ccc(Cl)s3)on2)cc1)N1CCCC1` [Example 23, 5-Chloro-thiophene-2-carboxylic acid {3-[4-(imino-pyrrolidin-1-yl-methyl)-phenyl]-isoxazol-5-ylmethyl}-amide], the IC50 is reported as ≤ 0.1 µM.
`C[C@@H](NC(=O)c1ccc(Cl)s1)c1cc(-c2ccc(C(=N)N3CCCC3)cc2)no1` [Example 51, (R)-5-Chloro-thiophene-2-carboxylic acid (1-{3-[4-(imino-pyrrolidin-1-yl-methyl)-phenyl]-isoxazol-5-yl}-ethyl)-amide] was tested, and the IC50 was ≤ 0.1 µM.
For `CN1CCN=C1c1ccc(-c2cccc(CNC(=O)c3ccc(Cl)s3)c2)cc1` [Example 381, 5-Chloro-N-((3-(4-(1-methyl-4,5-dihydro-1H-imidazol-2-yl)phenyl)phenyl)methyl)thiophene-2-carboxamide], the IC50 was ≤ 0.1 µM.
In the case of `CN(C)C(=N)c1ccc(-c2cc(CNC(=O)c3ccc(Cl)s3)on2)cc1` [Example 21, 5-Chloro-thiophene-2-carboxylic acid {3-[4-(N,N-dimethyl-carbamimidoyl)-phenyl]-isoxazol-5-ylmethyl}-amide], the IC50 is reported as ≤ 0.1 µM.
`N=C(c1ccc(-c2cc(CNC(=O)c3ccc(Cl)s3)on2)c(N2CCOCC2)c1)N1CCCCC1` [Example 101, 5-Chloro-thiophene-2-carboxylic acid {3-[4-(imino-piperidin-1-yl-methyl)-2-morpholin-4-yl-phenyl]-isoxazol-5-ylmethyl}-amide] was tested, and the IC50 was ≤ 0.1 µM.
`Cc1ccc(-c2cc(CNC(=O)c3ccc(Cl)s3)on2)cc1` [Example 149, 5-Chloro-thiophene-2-carboxylic acid (3-p-tolyl-isoxazol-5-ylmethyl)-amide] was tested, and the IC50 was ≥ 0.5 µM.
`O=C(NCc1cc(-c2ccc(N3CCCC3)cc2)no1)c1ccc(Cl)s1` [Example 256, 5-Chloro-thiophene-2-carboxylic acid [3-(4-pyrrolidin-1-yl-phenyl)-isoxazol-5-ylmethyl]-amide] was tested, and the IC50 was ≥ 0.5 µM.
With `CSc1ccccc1-c1ccc(C2=NOC(CNC(=O)c3ccc(Cl)s3)C2)cc1` (stereo not drawn) [Example 185, 5-Chloro-thiophene-2-carboxylic acid [3-(2′-methylsulfanyl-biphenyl-4-yl)-4,5-dihydro-isoxazol-5-ylmethyl]-amide] the IC50 was ≥ 0.5 µM.
With `O=C(NCc1cc(C2CCNCC2)no1)c1ccc(Cl)s1` [Example 176, 5-Chloro-thiophene-2-carboxylic acid (3-piperidin-4-yl-isoxazol-5-ylmethyl)-amide] the IC50 was ≥ 0.5 µM.
For `CN(Cc1cc(-c2ccc(C(=N)N3CCC(C(N)=O)CC3)cc2)no1)C(=O)c1ccc(Cl)s1` [Example 45, 1-{[4-(5-{[(5-Chloro-thiophene-2-carbonyl)-methyl-amino]-methyl}-isoxazol-3-yl)-phenyl]-imino-methyl}-piperidine-4-carboxylic acid amide], the IC50 was ≥ 0.5 µM.
With `CCCN(C)C(=N)c1ccc(-n2cc(CNC(=O)c3ccc(Cl)s3)nn2)cc1` [Example 315, N-((1-(4-(N-Methyl-N-propylcarbamimidoyl)phenyl)-1H-1,2,3-triazol-4-yl)methyl)-5-chlorothiophene-2-carboxamide] the IC50 was ≤ 0.1 µM.
`CN(C)CCN(C)C(=N)c1ccc(C2=NOC(C)(CNC(=O)c3ccc(Cl)s3)C2)cc1` (stereo not drawn) [Example 65, 5-Chloro-thiophene-2-carboxylic acid (3-{4-[N-(2-dimethylamino-ethyl)-N-methyl-carbamimidoyl]-phenyl}-5-methyl-4,5-dihydro-isoxazol-5-ylmethyl)-amide] was tested, and the IC50 was ≤ 0.1 µM.
With `COc1ccc(Oc2cc(C(=N)N(C)C)ccc2-c2cc(CNC(=O)c3ccc(Cl)s3)on2)cc1` [Example 133, 5-Chloro-thiophene-2-carboxylic acid {3-[4-(N,N-dimethyl-carbamimidoyl)-2-(4-methoxy-phenoxy)-phenyl]-isoxazol-5-ylmethyl}-amide] the IC50 was ≤ 0.1 µM.
With `CSc1cc(C2=NCCN2C)ccc1C1=NOC(CNC(=O)c2ccc(Cl)s2)C1` (stereo not drawn) [Example 137, 5-Chloro-thiophene-2-carboxylic acid {3-[4-(1-methyl-4,5-dihydro-1H-imidazol-2-yl)-2-methylsulfanyl-phenyl]-4,5-dihydro-isoxazol-5-ylmethyl}-amide] the IC50 was ≤ 0.1 µM.
Work on `O=C(NCC1CC(c2ccc(Nc3ccncn3)cc2)=NO1)c1ccc(Cl)s1` (stereo not drawn) [Example 230, 5-Chloro-thiophene-2-carboxylic acid {3-[4-(pyrimidin-4-ylamino)-phenyl]-4,5-dihydro-isoxazol-5-ylmethyl}-amide] yielded an IC50 of 0.1 to 0.5 µM.
With `N=C(c1ccc(C2=NOC(CNC(=O)c3ccc(Cl)s3)C2)cc1)N1CCCC1` (stereo not drawn) [Example 10, 5-Chloro-thiophene-2-carboxylic acid {3-[4-(imino-pyrrolidin-1-yl-methyl)-phenyl]-4,5-dihydro-isoxazol-5-ylmethyl}-amide] the IC50 was ≤ 0.1 µM.
`Cc1ccn(-c2ccc(-n3cc(CNC(=O)c4ccc(Cl)s4)nn3)cc2)c(=O)c1` [Example 295, 5-Chloro-N-((1-(4-(4-methyl-2-oxopyridin-1(2H)-yl)phenyl)-1H-1,2,3-triazol-4-yl)methyl)thiophene-2-carboxamide] was tested, and the IC50 was ≤ 0.1 µM.
`CN1CCN=C1c1ccc(C2=NOC(CNC(=O)c3ccc(Cl)s3)C2)c(OC2CCCC2)c1` (stereo not drawn) [Example 113, 5-Chloro-thiophene-2-carboxylic acid {3-[2-cyclopentyloxy-4-(1-methyl-4,5-dihydro-1H-imidazol-2-yl)-phenyl]-4,5-dihydro-isoxazol-5-ylmethyl}-amide] was tested, and the IC50 was ≤ 0.1 µM.
For `CC(=N)N1CCC(c2cc(CNC(=O)c3ccc(Cl)s3)on2)CC1` [Example 180, 5-Chloro-thiophene-2-carboxylic acid {3-[1-(1-imino-ethyl)-piperidin-4-yl]-isoxazol-5-ylmethyl}-amide], the IC50 was ≥ 0.5 µM.
With `CCOc1cc(C2=NCCN2C)ccc1-c1cc(CNC(=O)c2ccc(Cl)s2)on1` [Example 123, 5-Chloro-thiophene-2-carboxylic acid {3-[2-ethoxy-4-(1-methyl-4,5-dihydro-1H-imidazol-2-yl)-phenyl]-isoxazol-5-ylmethyl}-amide] the IC50 was ≤ 0.1 µM.
For `N=C(c1ccc(-n2cc(CNC(=O)c3ccc(Cl)s3)nn2)cc1)N1CCC1` [Example 317, N-((1-(4-(Azetidin-1-yl(imino)methyl)phenyl)-1H-1,2,3-triazol-4-yl)methyl)-5-chlorothiophene-2-carboxamide], the IC50 was ≤ 0.1 µM.
`N=C(c1ccc(-c2cc(CNC(=O)c3ccc(Cl)s3)on2)cc1)N1CCCCC1` [Example 24, 5-Chloro-thiophene-2-carboxylic acid {3-[4-(imino-piperidin-1-yl-methyl)-phenyl]-isoxazol-5-ylmethyl}-amide] was tested, and the IC50 was ≤ 0.1 µM.
With `CN(c1ccc(C2=NOC(CNC(=O)c3ccc(Cl)s3)C2)cc1)c1ccnc(N)n1` (stereo not drawn) [Example 231, 5-Chloro-thiophene-2-carboxylic acid (3-{4-[(2-amino-pyrimidin-4-yl)-methyl-amino]-phenyl}-4,5-dihydro-isoxazol-5-ylmethyl)-amide] the IC50 was ≥ 0.5 µM.
In the case of `CSc1cc(C(=N)N(C)C)ccc1C1=NOC(CNC(=O)c2ccc(Cl)s2)C1` (stereo not drawn) [Example 136, 5-Chloro-thiophene-2-carboxylic acid {3-[4-(N,N-dimethyl-carbamimidoyl)-2-methylsulfanyl-phenyl]-4,5-dihydro-isoxazol-5-ylmethyl}-amide], the IC50 is reported as ≤ 0.1 µM.
With `CN1CCN=C1c1ccc(C2=NOC(CNC(=O)c3ccc(Cl)s3)C2)c(N2CCCCCC2)c1` (stereo not drawn) [Example 91, 5-Chloro-thiophene-2-carboxylic acid {3-[2-azepan-1-yl-4-(1-methyl-4,5-dihydro-1H-imidazol-2-yl)-phenyl]-4,5-dihydro-isoxazol-5-ylmethyl}-amide] the IC50 was ≤ 0.1 µM.
